We go through 27 compounds from patent publication US7989451B2, “Tricyclic 1,2,4-triazine oxides and compositions for therapeutic use in cancer treatments” (Auckland Uniservices Limited, priority 2005, dated 2011).

Molecules are shown by their SMILES. Where a name gives a salt, the structure may show the parent alone.

Broadly, the melting point is the temperature, or range, at which the solid turns liquid. As for `[O-][n+]1nc(NCCO)nc2cc3c(cc21)CCC3` [Compound 24, 2-[(1-Oxido-7,8-dihydro-6H-indeno[5,6-e][1,2,4]triazin-3-yl)amino]ethanol], the melting point was 222 to 224 °C.

As for `CN(C)CCNc1nc2ccc3c(c2[n+]([O-])n1)CCC3` [Compound 6, N^1,N^1-Dimethyl-N^2-(1-oxido-8,9-dihydro-7H-indeno[5,4-e][1,2,4]triazin-3-yl)-1,2-ethanediamine], the melting point fell in the range of 186 to 190 °C.

As to `COC1CN(CCCNc2nc3cc4c(cc3[n+]([O-])n2)CCC4)C1` [Compound 54, N-[3-(3-Methoxy-1-azetidinyl)propyl]-7,8-dihydro-6H-indeno[5,6-e][1,2,4]triazin-3-amine 1-Oxide], the melting point lay within 101 to 102 °C.

For the compound `Nc1nc2cc3c(cc2[n+]([O-])n1)CCCC3` [Compound 175, 6,7,8,9-Tetrahydronaphtho[2,3-e][1,2,4]triazin-3-amine 1-Oxide], the melting point was 270 to 274 °C.

`[O-][n+]1nc(NCCN2CCCCC2)nc2cc3c(cc21)CCC3` [Compound 36, N-[2-(1-Piperidinyl)ethyl]-7,8-dihydro-6H-indeno[5,6-e][1,2,4]triazin-3-amine 1-Oxide]: the melting point fell in the range of 151 to 153 °C.

`CCc1nc2cc3c(cc2[n+]([O-])n1)CC(CCO)C3` (stereo not drawn) [Compound 161, 2-(3-Ethyl-1-oxido-7,8-dihydro-6H-indeno[5,6-e][1,2,4]triazin-7-yl)ethanol]: the melting point lay in the range of 96 to 99 °C.

For `[O-][n+]1nc(I)nc2cc3c(cc21)CC(CCOC1CCCCO1)C3` (stereo not drawn) [Compound 159, 3-Iodo-7-(2-(tetrahydro-2H-pyran-2-yloxy)ethyl)-7,8-dihydro-6H-indeno[5,6-e][1,2,4]triazine 1-Oxide], the melting point lay within 80 to 82 °C.

For the compound `[O-][n+]1nc(I)nc2cc3c(cc21)CCO3` [Compound 213, 3-Iodo-7,8-dihydrobenzofuro[6,5-e][1,2,4]triazine 1-Oxide], the melting point lay in the range of 192 to 194 °C.

The compound `COC1CCN(CCNc2nc3cc4c(cc3[n+]([O-])n2)CCC4)CC1` [Compound 42, N-[2-(4-Methoxy-1-piperidinyl)ethyl]-7,8-dihydro-6H-indeno[5,6-e][1,2,4]triazin-3-amine 1-Oxide] came in with a melting point of 131 to 133 °C.

As for `CCNc1nc2cc3c(cc2[n+]([O-])n1)CC(N(C)C)C3` (stereo not drawn) [Compound 113, N^3-Ethyl-N^7,N^7-dimethyl-7,8-dihydro-6H-indeno[5,6-e][1,2,4]triazine-3,7-diamine 1-Oxide], the melting point lay in the range of 187 to 190 °C.

Consider `CC1CCCC(C)N1CCNc1nc2cc3c(cc2[n+]([O-])n1)CCC3` (stereo not drawn) [Compound 38, N-[2-(2,6-Dimethyl-1-piperidinyl)ethyl]-7,8-dihydro-6H-indeno[5,6-e][1,2,4]triazin-3-amine 1-Oxide], for which the melting point lay within 173 to 175 °C.

`CCN(CC)CCNc1nc2cc3c(cc2[n+]([O-])n1)CCC3` [Compound 26, N^1-(1-Oxido-7,8-dihydro-6H-indeno[5,6-e][1,2,4]triazin-3-yl)-N^2,N^2-diethyl-1,2-ethanediamine] yielded a melting point of 109 to 112 °C.

`CN1CCc2ccc3nc(Cl)n[n+]([O-])c3c2C1` [Compound 263, 3-Chloro-9-methyl-7,8,9,10-tetrahydro[1,2,4]triazino[5,6-h]isoquinoline 1 Oxide]: the melting point lay within 200 to 205 °C.

The compound `C=CCc1nc2cc3c(cc2[n+]([O-])n1)CC(CO[Si](C)(C)C(C)(C)C)C3` (stereo not drawn) had a melting point of 49 to 52 °C.

Compound `CCN(CC)CCNc1nc2cc3c(cc2[n+]([O-])n1)CCO3` [Compound 209, N^1,N^1-Diethyl-N^2-(1-oxido-7,8-dihydrofuro[2,3-g][1,2,4]benzotriazin-3-yl)-1,2-ethanediamine] had a melting point of 150 to 151 °C.

`CC(C)(C)OP(=O)(OCCCc1n[n+]([O-])c2cc3c(cc2[n+]1[O-])CCC3)OC(C)(C)C` [Compound 73, 3-(3-(Di-tert-butoxyphosphoryloxy)propyl)-7,8-dihydro-6H-indeno[5,6-e][1,2,4]triazine 1,4-Dioxide] gave a melting point of 129 to 131 °C.

Consider `COC1CCN(CCCNc2nc3cc4c(cc3[n+]([O-])n2)CCC4)CC1` [Compound 58, N-[3-(4-Methoxy-1-piperidinyl)propyl]-7,8-dihydro-6H-indeno[5,6-e][1,2,4]triazin-3-amine 1-Oxide], for which the melting point was in the range of 120 to 121 °C.

In turn, `CN(C)CCNc1n[n+]([O-])c2cc3c(cc2[n+]1[O-])CCCC3` [Compound 178, N^1-(1,4-Dioxido-6,7,8,9-tetrahydronaphtho[2,3-e][1,2,4]triazin-3-yl)-N^2,N^2-dimethyl-1,2-ethanediamine] displayed a melting point of 148 to 151 °C.

In turn, `[O-][n+]1nc(CCCN2CCOCC2)nc2cc3c(cc21)CC(CO)C3` (stereo not drawn) (as salt: hydrochloride) [Compound 140, {3-[3-(4-Morpholinyl)propyl]-1-oxido-7,8-dihydro-6H-indeno[5,6-e][1,2,4]triazin-7-yl}methanol] had a melting point of 210 to 212 °C.

In turn, `CN(C)CCNc1nc2cc3c(cc2[n+]([O-])n1)CCO3` [Compound 207, N^1,N^1-Dimethyl-N^2-(1-oxido-7,8-dihydrofuro[2,3-g][1,2,4]benzotriazin-3-yl)-1,2-ethanediamine] displayed a melting point of 163 to 165 °C.

With `CCNc1n[n+]([O-])c2cc3c(cc2[n+]1[O-])CC(CO)C3` (stereo not drawn) [Compound 127, [3-(Ethylamino)-1,4-dioxido-7,8-dihydro-6H-indeno[5,6-e][1,2,4]triazin-7-yl]methanol], the melting point was 153 to 155 °C.

`CCc1nc2cc3c(cc2[n+]([O-])n1)CC(CN1CCOCC1)C3` (stereo not drawn) [Compound 143, 3-Ethyl-7-(4-morpholinylmethyl)-7,8-dihydro-6H-indeno[5,6-e][1,2,4]triazine 1-Oxide]: the melting point was in the range of 111 to 112 °C.

In turn, `CC1Cc2cc3nc(CCCN4CCOCC4)n[n+]([O-])c3cc2C1` (stereo not drawn) [Compound 102, 7-Methyl-3-[3-(4-morpholinyl)propyl]-7,8-dihydro-6H-indeno[5,6-e][1,2,4]triazine 1-Oxide] had a melting point of 70 to 71 °C.

For the compound `CC1Cc2cc3nc(N)n[n+]([O-])c3cc2C1` (stereo not drawn) [Compound 94, 7-Methyl-7,8-dihydro-6H-indeno[5,6-e][1,2,4]triazin-3-amine 1-Oxide], the melting point is 275 to 277 °C.

`CN(C)CCNc1nc2cc3c(cc2[n+]([O-])n1)CCCCC3` [Compound 188, N^1,N^1-Dimethyl-N^2-(1-oxido-7,8,9,10-tetrahydro-6H-cyclohepta[g][1,2,4]benzotriazin-3-yl)-1,2-ethanediamine] registered a melting point of 149 to 152 °C.

`[O-][n+]1nc(CCCN2CCOCC2)nc2cc3c(cc21)CCO3` [Compound 215, 3-[3-(4-Morpholinyl)propyl]-7,8-dihydrofuro[2,3-g][1,2,4]benzotriazine 1-Oxide] gave a melting point of 96 to 99 °C.

In turn, `CCCN(CCC)CCNc1nc2cc3c(cc2[n+]([O-])n1)CCC3` [Compound 28, N^1-(1-Oxido-7,8-dihydro-6H-indeno[5,6-e][1,2,4]triazin-3-yl)-N^2,N^2-dipropyl-1,2-ethanediamine] had a melting point of 95 to 97 °C.
